Results taken from publication PMC5762535, “Novel indazole-based small compounds enhance TRAIL-induced apoptosis by inhibiting the MKK7-TIPRL interaction in hepatocellular carcinoma” (Oncotarget, 2017).
Like-named read-outs stand apart in the source and are kept apart here.

Key:
[1] = MTT cell viability assay, Huh7 cells; type: cell-based, human; conditions: human, Huh7 cells, without TRAIL; for viability: MTT, Supplementary Table 2, read-out: Cell viability assay (%) Compound only
Method: (§1) Cell viability was assessed using a 3-(4,5-dimethylthiazol-2-yl)-2,5-diphenyltetrazolium bromide (MTT, Sigma-Aldrich, St. Louis, USA) assay. The cells were seeded at a density of 1 × 10^4 cells per well and treated with the lead compounds and/or TRAIL. After 24 or 48 h, MTT (2 mg/ml) was added to each well, and the absorbance was measured using a microplate reader (Bio-Rad, Hercules, USA) at 570 nm. The cell viability was calculated as the percentage of viable cells in the drug-treated group versus the untreated control using the following equation: cell viability (%) = [OD (drug)-OD (blank)]/[OD (control)-OD (blank)] × 100.

MKK7-TIPRL interaction [2] = molecular target: T1, MKK7-TIPRL interaction (Homo sapiens, UniProt O14733+O75663); assay: ELISA of the MKK7-TIPRL interaction; type: binding; parameters: The full-length cDNAs of human TIPRL and MKK7 were provided by the Korea Human Gene Bank; His; made in house
T1 sequence (O14733 1-419): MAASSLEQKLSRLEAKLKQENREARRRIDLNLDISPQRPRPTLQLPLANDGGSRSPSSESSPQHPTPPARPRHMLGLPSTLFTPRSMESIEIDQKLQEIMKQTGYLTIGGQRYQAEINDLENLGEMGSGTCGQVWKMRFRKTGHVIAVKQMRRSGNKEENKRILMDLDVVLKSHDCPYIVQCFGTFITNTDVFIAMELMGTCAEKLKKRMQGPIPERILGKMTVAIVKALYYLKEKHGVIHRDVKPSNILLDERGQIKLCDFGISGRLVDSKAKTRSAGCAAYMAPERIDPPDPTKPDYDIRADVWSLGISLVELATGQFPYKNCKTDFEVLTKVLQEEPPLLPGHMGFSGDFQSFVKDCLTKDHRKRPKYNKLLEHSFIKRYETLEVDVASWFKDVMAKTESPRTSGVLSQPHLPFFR
T1 sequence (O75663 1-272): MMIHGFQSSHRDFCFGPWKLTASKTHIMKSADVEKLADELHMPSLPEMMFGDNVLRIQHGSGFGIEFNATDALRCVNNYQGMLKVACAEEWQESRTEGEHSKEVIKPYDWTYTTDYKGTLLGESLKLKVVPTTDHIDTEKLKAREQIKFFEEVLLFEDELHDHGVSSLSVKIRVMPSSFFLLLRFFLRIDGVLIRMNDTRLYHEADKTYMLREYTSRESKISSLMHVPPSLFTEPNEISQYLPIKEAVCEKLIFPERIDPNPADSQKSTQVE
Description: The full-length cDNAs of human TIPRL and MKK7 were provided by the Korea Human Gene Bank (Korea Research Institute of Biosciences and Biotechnology, South Korea). TIPRL and MKK7 were subcloned into the pET21a vector (purchased from Novagen, San Diego, CA) and the pEBG vector containing a GST tag (kindly provided by Y. Liu, National Institute on Aging, National Institutes of Health) to construct the His-tagged and the GST-tagged plasmids, respectively. Purified TIPRL was conjugated with horseradish peroxidase (HRP). To screen chemical compounds using HTS, an ELISA system that detected the TIPRL and MKK7 interaction was constructed. Briefly, 96-well ELISA plates were coated with GST-MKK7 dissolved in PBS-T buffer (PBS containing 0.05% Tween-20 and 0.5% BSA), followed by the addition of 100 μl of TIPRL-HRP dissolved in PBS-T buffer. After 1 h, 100 μl of tetramethylbenzidine (TMB) solution was added to each well and the absorbance was read at 450 nm.

Huh7 cells = assay: MTT cell viability assay, Huh7 cells; type: cell-based, human; conditions: for effect on cell viability / cell death of Huh7 cells in the presence of TRAIL: MTT, co-treatment with TRAIL
Method: as §1

caspase-3 = assay: Caspase 3 activity assay in Huh7 cells; type: cell-based, human; conditions: for Caspase 3 activity Compound + TRAIL/Compound: each compound at its working concentration and time of the table
Method: The caspase 3 activity was measured using a caspase-3 luminescent assay kit (Promega, Madison, WI, USA), according to the manufacturer's instructions, and a luminescence plate reader (Molecular Devices Co., Sunnyvale, USA).

MKK7-TIPRL interaction [3] = molecular target: T1, MKK7-TIPRL interaction; assay: GST pull-down assay of MKK7-TIPRL in 293T cells; type: cell-based; conditions: 10 μM TRT-0029 or 20 μM TRT-0173, 24 h
Method: The full-length cDNAs of human TIPRL and MKK7 were subcloned into the pCGN vector (W. Herr, Cold Spring Harbor Laboratory) and the pEBG vector containing a GST tag to construct the HA-tagged and the GST-tagged plasmids, respectively. 293T cells were transfected with expression vector constructs using the TurboFect Transfection Reagent (Thermo Fisher Scientific, Lafayette, USA) and then were lysed in RIPA buffer (50 mM Tris-HCl, 150 mM NaCl, 1% Triton™ X-100, 0.1% SDS, 1 mM EDTA, 1 mM Na3VO4, and 1 mM NaF) containing complete protease inhibitor cocktail (Roche Applied Science, Indianapolis, USA). Whole-cell extracts were incubated with Glutathione Sepharose 4B (GE Healthcare, Uppsala, Sweden), and the eluted GST-tagged proteins were subjected to Western blotting using the indicated antibodies.

Pharmacokinetics in rats = type: in vivo, Sprague-Dawley rats; conditions: rat; for AUC: male, Sprague-Dawley, plasma, after 24 h
Method: Male Sprague-Dawley rats anesthetized with ketamine were cannulated with polyethylene tubing in the femoral vein. A solution of lead compound (TRT-0029 or TRT-0173) was prepared by dissolving the compounds in a mixture of dimethyl sulfoxide (DMSO)/ polyethylene glycol 400 (PEG 400)/ distilled water (0.5: 4: 5.5), and was administered to rats by a bolus injection in the femoral vein. Blood samples were collected via the femoral vein 0, 2, 10, and 30 min, as well as 1, 2, 4, 6, 8, and 24 h after intravenous administration. For oral administration, blood was collected 0.25, 0.5, 1, 2, 4, 6, 8, and 24 h after treatment. The plasma fractions were prepared by centrifugation and were stored at −70°C before the liquid chromatography-tandem mass spectrometry (LC/MS/MS) analysis. The concentrations of target compound in the plasma were measured using LC-MS/MS (4000 QTRAP, AB SCIEX, Foster City, CA) in multiple reaction monitoring (MRM) mode. The PK parameters were determined with non-compartmental methods using Phoenix WinNolin (Pharsight, Mountain View, CA). The area under the plasma concentration-time curve (AUC) was calculated using the trapezoidal rule extrapolated to infinity. The terminal elimination half-life (t1/2), and the systemic clearance (CL) were obtained. The peak plasma concentration (Cmax) after oral administration was obtained by visual inspection of the plasma concentration-time plot of each rat.

HepG2 cells = assay: MTT cell viability assay, HepG2 cells; type: cell-based, human; conditions: 10 µM TRT-0029 or 20 µM TRT-0173 plus TRAIL 100 ng/ml, 24 h
Method: as §1

Huh7 tumor xenografts = assay: In vivo Huh7 xenograft assay; parameters: species or system BALB/c nude mice
Description: Five-week-old female BALB/c nude mice were purchased from SLC Japan and were maintained in accordance with the guidelines of the Institutional Review Committee for Animal Care and Use of the Korea Research Institute of Bioscience and Biotechnology. Protocol approval was obtained from the same committee.
Huh7 cells were harvested and subcutaneously injected (5 × 10^6 cells/mouse) into nude mice (N = 6/group for TRT-0173 or TRT-0029 experiments). When the tumor volume reached ~100 mm^3, the mice were divided into four groups and treated with vehicle, TRAIL (2.5 mg/kg, intraperitoneal), lead compound (TRT-0029 or TRT-0173, 30 mg/kg, intravenously), or lead compound (30 mg/kg, intravenously) combined with TRAIL (2.5 mg/kg, intraperitoneal) daily for 11 days (11 treatments in total). The tumor volumes were measured every 2 days for 11 days after treatment, and tumor volume was calculated according to the following equation: V (mm^3) = width^2 (mm^2) × length (mm)/2. Body weight and tumor mass were measured 11 days after treatment.

caspase-3 and PARP = assay: Western blot of cleaved caspase-3 and PARP in Huh7 cells; type: cell-based, human; conditions: lead compounds co-treated with TRAIL 100 ng/ml, TRAIL tested alone
Method: The cells were lysed in lysis buffer (50 mM Tris-HCl, pH 7.4, 150 mM NaCl, 1% Triton™ X-100, 0.1% SDS, 1 mM EDTA, 1 mM Na3VO4, 1 mM NaF, and protease inhibitor cocktail) and clarified by centrifugation at 14,000×g for 20 min at 4°C. The protein samples were then subjected to Western blotting with the indicated antibodies.

[4] = hit compounds from the in-house library, Supplementary Table 2, read-out: ELISA IC50

CC(=O)c1cc(-n2ncc3cc(NS(=O)(=O)c4ccccc4)ccc32)c(Cl)cc1Cl [Compound 3]
viability [1]: 42% | IC50 (MKK7-TIPRL interaction [2]; [4]): 1.7 µM

COc1ccc(S(=O)(=O)Nc2ccc3c(cnn3-c3ccc(F)cc3)c2)cc1 [Compound 4]
viability [1]: 86% | IC50 (MKK7-TIPRL interaction [2]; [4]): 0.089 µM

Nc1ccc2[nH]ncc2c1 [Compound 5]
viability [1]: 81% | IC50 (MKK7-TIPRL interaction [2]; [4]): 1.4 µM

O=Cc1cc([N+](=O)[O-])ccc1F [Compound 6]
viability [1]: 93% | IC50 (MKK7-TIPRL interaction [2]; [4]): 2 µM

O=[N+]([O-])c1ccc(F)c(/C=N/Nc2ccc(F)cc2)c1 [Compound 7]
viability [1]: 89% | IC50 (MKK7-TIPRL interaction [2]; [4]): 8.9 µM

O=[N+]([O-])c1ccc2c(cnn2-c2ccc(F)cc2)c1 [Compound 8]
viability [1]: 69% | IC50 (MKK7-TIPRL interaction [2]; [4]): 2.8 µM

Nc1ccc2c(cnn2-c2ccc(F)cc2)c1 [Compound 9]
viability [1]: 90% | IC50 (MKK7-TIPRL interaction [2]; [4]): 1 µM

CC(=O)c1cc(-n2cc3cc(N)ccc3n2)c(Cl)cc1Cl [Compound 10]
viability [1]: 111% | IC50 (MKK7-TIPRL interaction [2]; [4]): 3.5 µM

CC(=O)c1cc(-n2ncc3cc(N)ccc32)c(Cl)cc1Cl [TRT-0002]
viability at 48 h, 40 µM ([1]; Huh7, MTT, 40 µM, 48 hrs, Supplementary Table 3, read-out: Cell viability assay Compound only): 81% | viability [1]: 80% | viability at 40 µM (Huh7 cells; Homo sapiens, Huh-7, Huh7, MTT, 40 µM, 48 hrs, with TRAIL, Supplementary Table 3, read-out: Cell viability assay Compound + TRAIL): 29% | effect on cell viability / cell death of Huh7 cells in the presence of TRAIL (Huh7 cells): significantly enhanced TRAIL-induced cell death | effect on cell viability / cell death of Huh7 cells in the presence of TRAIL (Huh7 cells; listed as 16): synergetic effect | IC50 (MKK7-TIPRL interaction [2]; [4]): 1 µM | IC50 (MKK7-TIPRL interaction [2]; newly synthesized TRT-0002, ELISA, read-out: IC50 to inhibit the MKK7-TIPRL interaction): 1.4 µM | Caspase 3 activity Compound + TRAIL/Compound (caspase-3): 1.80 ratio

CC(=O)c1cc(-n2ncc3cc(NS(=O)(=O)c4ccccc4)ccc32)c(Cl)cc1Cl [TRT-0029]
interaction between MKK7 and TIPRL in GST pull-down assay, compared with untreated cells (MKK7-TIPRL interaction [3]): significantly decreased the interaction | AUC (Pharmacokinetics in rats; iv, i.v. 5 mg/kg, read-out: AUC (i.v.)): 10000 ng·h/mL | AUC (Pharmacokinetics in rats; po, p.o. 5 mg/kg, read-out: AUC (p.o.)): 1220 ng·h/mL | oral availability (Pharmacokinetics in rats; 5 mg/kg i.v. and p.o.): 11% | decrease of HepG2 viability by co-treatment with TRAIL (HepG2 cells): 36% | tumor volume / tumor growth at 11 days, compound + TRAIL compared with compound alone (Huh7 tumor xenografts; compound 30 mg/kg i.v. plus TRAIL 2.5 mg/kg i.p. daily): significantly reduced | reduction of average tumor mass, lead compound + TRAIL (Huh7 tumor xenografts; compound 30 mg/kg i.v. plus TRAIL 2.5 mg/kg i.p. daily for 11 days, versus vehicle control): 64.5% | viability at 24 h, 10 µM ([1]; Huh7, MTT, 10 µM, 24 hrs, Supplementary Table 3, read-out: Cell viability assay Compound only): 69% | reduction of cell viability of Huh7 cells by co-treatment with TRAIL, compared to TRAIL alone (Huh7 cells; 10 μM TRT-0029 or 20 μM TRT-0173 plus TRAIL, 24 h): ~90% | viability at 10 µM (Huh7 cells; Homo sapiens, Huh-7, Huh7, MTT, 10 µM, 24 hrs, with TRAIL, Supplementary Table 3, read-out: Cell viability assay Compound + TRAIL): 11% | effective working concentration (Huh7 cells; Huh7 cells, various doses with and without TRAIL (100 ng/ml), 24 h): 10 µM | apoptosis signals (cleaved caspase-3, PARP) by Western blotting (caspase-3 and PARP): effectively activated apoptosis signals | activity of caspase-3, co-treatment with TRAIL compared to compound alone or TRAIL alone (caspase-3; Huh7, 24 h): significantly increased | Caspase 3 activity Compound + TRAIL/Compound (caspase-3): 2.20 ratio

B1: TRAIL: human TRAIL protein, member of the TNF superfamily, used as co-treatment (protein, UniProt P50591 1-281, looked up)
Tumor necrosis factor ligand …: MAMMEVQGGPSLGQTCVLIVIFTVLLQSLCVAVTYVYFTNELKQMQDKYSKSGIACFLKEDDSYWDPNDEESMNSPCWQVKWQLRQLVRKMILRTSEETISTVQEKQQNISPLVRERGPQRVAAHITGTRGRSNTLSSPNSKNEKALGRKINSWESSRSGHSFLSNLHLRNGELVIHEKGFYYIYSQTYFRFQEEIKENTKNDKQMVQYIYKYTSYPDPILLMKSARNSCWSKDAEYGLYSIYQGGIFELKENDRIFVSVTNEHLIDMDHEASFFGAFLVG
anti-cancer effects of TRAIL alone in vivo (Huh7 tumor xenografts; 5 and 2.5 mg/kg, data not shown): dose-dependent anti-cancer effects | reduction of average tumor mass, TRAIL alone (Huh7 tumor xenografts; TRAIL 2.5 mg/kg i.p. daily for 11 days): 24.8% | apoptosis signals (cleaved caspase-3, PARP) by Western blotting (caspase-3 and PARP): did not activate caspase-3
